Data from patent US20250186555A1, “FORMULATIONS COMPRISING ACID-NEUTRALIZING POLYMER FOR ORAL ADMINISTRATION OF GLUCAGON-LIKE PEPTIDE-2” (Entera Bio Ltd., priority 2022, published 2025).
Where two headings read alike, the source gives them in different places. Each block holds one compound with its values, some of them ahead of it.

Columns and labels:
[1] = pH upon addition of test substance to 0.1 M HCl solution (pH 1.2), simulated gastric fluid, pH meter; format: physicochemical
Experimental: Test substances were dissolved in various volumes of 0.1 M HCl solution (pH 1.2) at concentrations of 1, 2, 4, 10, 20, 50, 100 and 150 mg/ml. The solution pH was determined using an MP-103 pH-meter (MRC, Israel) equipped with ELC-10-00 electrode (MRC, Israel) or with a thin electrode HI1083 (HANNA instruments Inc.), shortly after dissolution and up to 26 hours later in order to ensure that the pH remained stable. The highest pH value obtained during the experimental time period was recorded in order to compare the acid-neutralizing capacity of each substance.
SNAC and the basic polymers sodium alginate, sodium carboxymethylcellulose in non-crosslinked (Na-CMC) and crosslinked (croscarmellose sodium, CCS) forms, and sodium starch glycolate (SSG) were dissolved in various volumes of 0.1 M HCl solution (pH 1.2) at concentrations of 1, 2, 4, 10, 20, 50, 100 and 150 mg/ml, and the solution pH was determined using an MP-103 pH-meter (MRC, Israel) equipped with ELC-10-00 electrode (MRC, Israel), as described in the Materials and Methods section hereinabove.
In order to obtain a beneficial rise in pH with a reduced loss of the active form of the absorption enhancer, the effect of various concentrations of different polymers containing carboxylate groups (sodium alginate, sodium starch glycolate, sodium carboxymethylcellulose, and croscarmellose sodium) on pH upon addition to a 0.1 M HCl solution (pH 1.2) was also evaluated. FIG. 2A presents pH values determined using an MP-103 pH-meter (MRC, Israel) equipped with ELC-10-00 electrode (MRC, Israel) and FIG. 2B presents pH values determined using an MP-103 pH-meter (MRC, Israel) equipped with a thin electrode HI1083 (HANNA instruments Inc.).

[2] = compared with endogenous GLP-2; cited from earlier work
[3] = Oral teduglutide/SNAC/SSG mini-tablets in rats, plasma teduglutide by ELISA; format: in vivo, Sprague-Dawley rats; conditions: oral mini-tablets: 0.7 mg teduglutide (2.34 mg/Kg), 15 mg SNAC, 5.33 mg SSG, n=7
Experimental: In an exemplary in vivo rat model, the effect of SNAC, as an exemplary absorption enhancer, and SSG, as an exemplary alkaline polymer, on the oral bioavailability of teduglutide was tested.
A formulation was prepared with 0.7 mg teduglutide (2.34 mg/Kg), 15 mg SNAC, 0.2 mg stearate and 5.33 mg SSG. All substances were in a dry powder form and mixed geometrically. Afterwards, mini-tablets were prepared from the mixes using a 2 mm punch and die set at 1 ton/cm^2.
The study was conducted in 7 male Sprague-Dawley (SD) rats weighing about 299 grams (290-320 grams). Animals were deprived of food 12-15 hours prior to administration. Water supply was removed one hour before administration and returned one hour post-administration. The mini-tablets were administered by a flexible intragastric gavage with a tip adapted for solid dosage forms administration, without the aid of water. Blood samples were thereafter collected at pre-determined time points, the plasma was separated, and the plasma level of teduglutide was quantified by an ELISA kit for the detection of endogenous GLP-2 in plasma (Abcam, Cat. No. ab222863) according to manufacturer's method Version 7, upon required modifications.

[4] = cited from earlier work
[5] = teduglutide without the formulation; cited from earlier work

pH 5 minutes after dissolution ([1]; 10 mg/ml SNAC added to HCl solution (pH 1.2)): about 1.5
pH 5 minutes after dissolution ([1]; 20 mg/ml SNAC added to HCl solution (pH 1.2)): 6.5
pH 5 minutes after dissolution ([1]; 100 mg/ml SNAC added to HCl solution (pH 1.2)): about 7.5
Compound: O=C(O)CCCCCCCNC(=O)c1ccccc1O [SNAC, sodium 8-N-(2-hydroxybenzoyl)aminocaprylate]

Compound: CC[C@H](C)[C@H](NC(=O)[C@H](Cc1ccccc1)NC(=O)[C@H](CC(=O)O)NC(=O)[C@H](CCCNC(=N)N)NC(=O)[C@H](C)NC(=O)[C@H](C)NC(=O)[C@H](CC(C)C)NC(=O)[C@H](CC(N)=O)NC(=O)[C@H](CC(=O)O)NC(=O)[C@H](CC(C)C)NC(=O)[C@@H](NC(=O)[C@@H](NC(=O)[C@H](CC(N)=O)NC(=O)[C@H](CCSC)NC(=O)[C@H](CCC(=O)O)NC(=O)[C@H](CC(=O)O)NC(=O)[C@H](CO)NC(=O)[C@H](Cc1ccccc1)NC(=O)[C@H](CO)NC(=O)CNC(=O)[C@H](CC(=O)O)NC(=O)CNC(=O)[C@@H](N)Cc1c[nH]cn1)[C@@H](C)O)[C@@H](C)CC)C(=O)N[C@@H](CC(N)=O)C(=O)N[C@@H](Cc1c[nH]c2ccccc12)C(=O)N[C@@H](CC(C)C)C(=O)N[C@H](C(=O)N[C@@H](CCC(N)=O)C(=O)N[C@H](C(=O)N[C@@H](CCCCN)C(=O)N[C@H](C(=O)N[C@H](C(=O)N[C@@H](CC(=O)O)C(=O)O)[C@@H](C)O)[C@@H](C)CC)[C@@H](C)O)[C@@H](C)CC [teduglutide]
stability to metabolic degradation [2]: significantly higher stability to metabolic degradation than the endogenous glucagon like peptide 2 (GLP-2)
teduglutide plasma concentrations as a function of time [3]: enable oral delivery of teduglutide
half-life in humans ([4]; humans): about two hours
oral (PO) bioavailability [5]: negligible

Compound: GLP-2: Human glucagon-like peptide-2, a 33-amino acid polypeptide produced by intestinal endocrine L cells
half-life in humans ([4]; human, in vivo): about 7 minutes
